From patent publication US11419856B2, “Pharmaceutical combinations for use in the treatment of neoplastic diseases” (Basilea Pharmaceutica International AG, priority 2017, dated 2022)

How the values were obtained:
[1] = tested on: MDA-MB-231 xenograft (human triple negative breast cancer); experiment: Antitumor efficacy and induction of cures in the MDA-MB-231 xenograft model (Examples 1A, 1B); type: in vivo, mouse
Method: (§1) Female athymic nude mice (Crl:NU(NCr)-Foxnlnu, Charles River) were used when ten weeks old with a body weight (BW) range of 19.7-27.1 g on Day 1 of the study. The animals were fed ad libitum water (reverse osmosis, 1 ppm Cl) and NIH 31 Modified and Irradiated Lab Diet® consisting of 18.0% crude protein, 5.0% crude fat, and 5.0% crude fiber. The mice were housed on irradiated Enrich-o'Cobs™ Laboratory Animal Bedding in static micro-isolators on a 12-hour light cycle at 20-22° C. (68-72° F.) and 40-60% humidity. Charles River Discovery Services North Carolina (CR Discovery Services) specifically complies with the recommendations of the Guide for Care and Use of Laboratory Animals with respect to restraint, husbandry, surgical procedures, feed and fluid regulation, and veterinary care. The animal care and use program at CR Discovery Services is accredited by the Association for Assessment and Accreditation of Laboratory Animal Care International (AAALAC), which assures compliance with accepted standards for the care and use of laboratory animals. These considerations were taken into account in the way that the dosage regimes were designed and implemented.
The human MDA-MB-231 breast adenocarcinoma cells were grown to mid-log phase in RPMI-1640 medium containing 10% fetal bovine serum, 2 mM glutamine, 100 units/mL sodium penicillin G, 25 μg/mL gentamicin, and 100 μg/mL streptomycin sulfate. The tumor cells were cultured in tissue culture flasks in a humidified incubator at 37° C./5% CO2 and 95% air, harvested during exponential growth and resuspended in cold Phosphate-buffered saline (PBS). Each test animal received a subcutaneous (s.c.) injection of 5×10^6 MDA-MB-231 cells (0.1 mL cell suspension) into the right flank, and tumor growth was monitored as the average tumor size approached the target range of 100-150 mm^3. Tumors were measured (mm) in two dimensions using calipers, and volume was calculated using the formula: Tumor Volume (TV) (mm^3)=(width^2×length)/2. Eighteen days after tumor cell implantation, on Day 1 of the study, mice with individual tumor volumes ranging from 75 to 172 mm^3 were randomized into groups of 8-10 animals, with group mean tumor volumes of 114-124 mm^3.
BAL0101553 was dissolved in 0.9% NaCl in water buffered to pH 5 with 1% sodium acetate to yield 2, 2.5 and 3 mg/mL dosing solutions, providing 20, 25 and 30 mg/kg dosages, respectively, in 10 mL/kg dosing volumes. Eribulin (purchased from Eisai Co., Lot. No. 6217, 6288, 6289 and 6309) at 0.5 mg/mL concentration was diluted in saline to yield a 0.01, 0.025 and 0.05 mg/mL dosing solutions, providing 0.1, 0.25 and 0.5 mg/kg dosages, respectively, in a dosing volume of 10 mL/kg.
(§2) Groups of mice (n=8-10) bearing MDA-MB-231 tumors were dosed as outlined in the Tables 1 and 3. All doses were adjusted to 10 mL/kg. The control groups received oral doses of vehicle (pH 5 buffered 0.9% NaCl solution). Eribulin was administered i.v. and BAL101553 orally. When eribulin and BAL0101553 were dosed in combination, Eribulin was administered to all groups first followed by BAL0101553 dosing within 30 minutes of the first regimen.
Body weights were recorded daily for days 1-5 and then twice weekly until the end of the study and tumor volumes were recorded twice weekly until the end of the experiment. These parameters were analyzed and graphically represented by using GraphPad-Prism™ 5 for Windows according to standard procedure. […] Tumor free animals at the end of the study time were assessed for residual MDA-MB-231 tumor cells by pathological methods. Skin and subcutaneous tissue including the tumor cell inoculation site from the flank region were resected, preserved in formalin and embedded in paraffin.

[2] = Tolerability in the MDA-MB-231 xenograft model (body weight, mortalities); conditions: for Final body-weight / Body-weight change: mean ± SD
Method: as §1, with “The” for “Female athymic nude mice (Crl:NU(NCr)-Foxnlnu, Charles River) were used when ten weeks old with a body weight (BW) range of 19.7-27.1 g on Day 1 of the study. The animals were fed ad libitum water (reverse osmosis, 1 ppm Cl) and NIH 31 Modified and Irradiated Lab Diet® consisting of 18.0% crude protein, 5.0% crude fat, and 5.0% crude fiber. The”
as §2, with “All” for “Groups of mice (n=8-10) bearing MDA-MB-231 tumors were dosed as outlined in the Tables 1 and 3. All”
Body weights were recorded daily for days 1-5 and then twice weekly until the end of the study and tumor volumes were recorded twice weekly until the end of the experiment. These parameters were analyzed and graphically represented by using GraphPad-Prism™ 5 for Windows according to standard procedure. […] Skin and subcutaneous tissue including the tumor cell inoculation site from the flank region were resected, preserved in formalin and embedded in paraffin. Sections of approximately 5 μm were mounted on glass slides and stained with hematoxylin/eosin and were evaluated by a trained pathologist, to identify residual tumor cells at the site of injection, and were being reported as positive for the existence of residual tumor cells or as negative for a complete lack of any evidence of residual tumor cells.

[3] = Day 26, Eribulin i.v. 0.1 mg/kg q2d D1-D21, 0.1 mg/kg q2d D25-D43
[4] = Day 26, Eribulin i.v. 0.25 mg/kg q2d D1-D21, 0.25 mg/kg q2d D25-D43
[5] = Day 26, Eribulin i.v. 0.5 mg/kg q2d D1-D21, 0.5 mg/kg q2d D25-D43
[6] = Day 100 (endpoint), Eribulin i.v. 0.1 mg/kg q2d D1-D21, 0.1 mg/kg q2d D25-D43
[7] = Day 100 (endpoint), Eribulin i.v. 0.25 mg/kg q2d D1-D21, 0.25 mg/kg q2d D25-D43
[8] = Day 100 (endpoint), Eribulin i.v. 0.5 mg/kg q2d D1-D21, 0.5 mg/kg q2d D25-D43
[9] = E1A, Day 25, i.v. 0-1 mg/kg q2d D1-D9, 0.1 mg/kg q2d D12-D34
[10] = E1A, Day 25, i.v. 0.5 mg/kg q2d D1-D9, 0.5 mg/kg q2d D12-D34
[11] = E1A, Day 85 (endpoint), i.v. 0-1 mg/kg q2d D1-D9, 0.1 mg/kg q2d D12-D34
[12] = E1A, Day 85 (endpoint), i.v. 0.5 mg/kg q2d D1-D9, 0.5 mg/kg q2d D12-D34
[13] = E1A, Day 25, i.v. 0.1 mg/kg q2d D1-D9, 0.1 mg/kg q2d D12-D34
[14] = E1B, Day 26, i.v. 0.1 mg/kg q2d D1-D21, 0.1 mg/kg q2d D25-D43
[15] = E1B, Day 26, i.v. 0.25 mg/kg q2d D1-D21, 0.25 mg/kg q2d D25-D43
[16] = E1B, Day 26, i.v. 0.5 mg/kg q2d D1-D21, 0.5 mg/kg q2d D25-D43

For `C=C1C[C@@H]2CC[C@@]34C[C@H]5O[C@H]6[C@@H](O3)[C@H]3O[C@H](CC[C@@H]3O[C@H]6[C@H]5O4)CC(=O)C[C@@H]3[C@@H](OC)[C@@H](C[C@H](O)CN)O[C@H]3C[C@H]3O[C@@H](CC[C@@H]1O2)C[C@@H](C)C3=C.CS(=O)(=O)O` [Eribulin, (2R, 3R, 3aS, 7R, 8aS, 9S, 10aR, 11S, 12R, 13aR, 13bS, 15S, 18S, 21S, 24S, 26R, 28R, 29aS)-2-[(2S)-3-Amino-2-hydroxypropyl]-3-methoxy-26-methyl-20,27-dimethylidenehexacosahydro-11,15:18,21:24,28-triepoxy-7,9-ethano-12,15-methano-9H,15H-furo[3,2-i]furo[2′,3′:5,6]pyrano[4,3-b][1,4]dioxacyclopentacosin-5(4H)-one methanesulfonate (salt)], the “# of regressed tumors (total)” value [1, 3] was 2 (10), the T/C [1, 3] was 0.12 and the “# of regressed tumors (total)” value [1, 4] was 8 (10). For the same compound, the T/C [1, 4] was −0.05, the “# of regressed tumors (total)” value [1, 5] was 10 (10) and the T/C [1, 5] was −0.09. For the same compound, the “# of confirmed cures (total)” value [1, 6] was 0 (10), the “# of tumors with TV ≤ 4 mm^3 (total)” value [1, 6] was 0 (10) and the “% cures” value [1, 6] was 0%. The “# of confirmed cures (total)” value [1, 7] was 1 (9), the “# of tumors with TV ≤ 4 mm^3 (total)” value [1, 7] was 1 (10) and the “% cures” value [1, 7] was 11%. For the same compound, the “# of confirmed cures (total)” value [1, 8] was 6 (10), the “# of tumors with TV ≤ 4 mm^3 (total)” value [1, 8] was 2 (10) and the “% cures” value [1, 8] was 60%. The “# of regressed tumors (total)” value [1, 9] was 1 (8), the T/C [1, 9] was 0.13 and the “# of regressed tumors (total)” value [1, 10] was 8 (8). For the same compound, the T/C [1, 10] was −0.09, the “# of confirmed cures (total)” value [1, 11] was 0 (8) and the “# of tumors with TV ≤ 4 mm^3 (total)” value [1, 11] was 0 (8). For the same compound, the “% cures” value [1, 11] was 0%, the “# of confirmed cures (total)” value [1, 12] was 1 (8) and the “# of tumors with TV ≤ 4 mm^3 (total)” value [1, 12] was 3 (8). The “% cures” value [1, 12] was 12.5%, the “T/C (TC-BW, body weight)” value [2, 13] was 1.00 and the “T/C (TC-BW, body weight)” value [2, 10] was 0.96. The “Final body-weight” value [2, 13] was 25.8 ± 3.0 g, the “Final body-weight” value [2, 10] was 24.4 ± 1.9 g and the “Body-weight change” value ([2]; E1A, day-0 until day-25, i.v. 0.1 mg/kg q2d D1-D9, 0.1 mg/kg q2d D12-D34) was 2.1 ± 1.0 g. For the same compound, the Mortalities ([2]; E1A, i.v. 0.1 mg/kg q2d D1-D9, 0.1 mg/kg q2d D12-D34) was 0/8, the Mortalities ([2]; E1A, i.v. 0.5 mg/kg q2d D1-D9, 0.5 mg/kg q2d D12-D34) was 0/8 and the “T/C (TC-BW, body weight)” value [2, 14] was 1.09. The “T/C (TC-BW, body weight)” value [2, 15] was 1.02, the “T/C (TC-BW, body weight)” value [2, 16] was 1.03 and the “Final body-weight” value [2, 14] was 27.9 ± 2.7 g. For the same compound, the “Final body-weight” value [2, 15] was 26.6 ± 1.7 g, the “Final body-weight” value [2, 16] was 25.5 ± 1.5 g and the “Body-weight change” value ([2]; E1B, day-0 until day-26, i.v. 0.1 mg/kg q2d D1-D21, 0.1 mg/kg q2d D25-D43) was 3.9 ± 1.1 g. The “Body-weight change” value ([2]; E1B, day-0 until day-26, i.v. 0.25 mg/kg q2d D1-D21, 0.25 mg/kg q2d D25-D43) was 2.3 ± 1.0 g, the “Body-weight change” value ([2]; E1B, day-0 until day-26, i.v. 0.5 mg/kg q2d D1-D21, 0.5 mg/kg q2d D25-D43) was 2.3 ± 0.9 g and the Mortalities ([2]; E1B, i.v. 0.1 mg/kg q2d D1-D21, 0.1 mg/kg q2d D25-D43) was 0/10. The Mortalities ([2]; E1B, i.v. 0.25 mg/kg q2d D1-D21, 0.25 mg/kg q2d D25-D43, a non-treatment related death footnoted) was 0/10^+ and the Mortalities ([2]; E1B, i.v. 0.5 mg/kg q2d D1-D21, 0.5 mg/kg q2d D25-D43) was 0/10.
